According to PubChem BioAssay (NCI):
Several values for one entry are separate records, joined by “and”; a condition that tells them apart may be missing. Equal values may be shown once.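 The compound was tested at five concentrations on cells cultured in 96-well plates, with a 48-hour exposure period. GI50: concentration for 50% inhibition of growth. Definition used: TGI = concentration required for complete inhibition of growth.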

Tests used:
Assay in all cases: NCI tumour cell line growth inhibition, 48 h
[1] = system: SF-268 CNS
[2] = system: U251 CNS
[3] = system: HOP-62 NSCLC
[4] = system: M14 melanoma
[5] = system: HS 578T breast
[6] = system: UACC-62 melanoma
[7] = system: SW-620 colon
[8] = system: COLO 205 colon
[9] = system: SN12C renal
[10] = system: NCI-H226 lung

| SMILES | GI50 [1] [µM] | TGI [1] [µM] | GI50 [2] [nM] | TGI [2] [µM] | GI50 [3] [µM] | TGI [3] [µM] | GI50 [4] [nM] | TGI [4] | GI50 [5] | TGI [5] | GI50 [6] [nM] | TGI [6] | GI50 [7] [nM] | TGI [7] | GI50 [8] [nM] | TGI [8] | GI50 [9] [µM] | TGI [9] | GI50 [10] | TGI [10] |
| --- | --- | --- | --- | --- | --- | --- | --- | --- | --- | --- | --- | --- | --- | --- | --- | --- | --- | --- | --- | --- |
| COc1ccc(Cn2cc3c(c2-c2ccccc2)CCc2cncnc2-3)cc1 | 9.63 | 22.2 | 5470 | 18 | 12 | 31.3 | 4200 | 18.2 µM | 1.58 µM | 6.51 µM | 3470 | 16.5 µM | 3650 | 13.9 µM | 4440 | 17.2 µM | 5.85 | 20.9 µM | 11.5 µM | 26.7 µM |
| COc1ccc(Cn2c3c(c4c(O)cccc42)C(=O)c2ccccc2-3)cc1 | 8.75 | 29.1 | 14100 | 27.1 | 4.39 | 14.9 | 14400 | 38 µM | 4.44 µM | 20.4 µM | 14500 | 30.1 µM | 12600 | 36.9 µM | 25900 | 92.3 µM | 15.6 | 29 µM | 13.4 µM | 32.8 µM |
| Cc1ccc(C(=O)Nc2ccccc2C(=O)N/N=C(\c2ccccc2)c2ccccn2)cc1 | 0.274 | > 100 | 485 | > 100 | 0.27 | > 100 | 272 | 3.26 µM | 9.13 µM | > 100 µM | 360 | 6.7 µM | 603 | > 100 µM | 334 | > 100 µM | 0.76 | > 100 µM | 0.895 µM | > 100 µM |
| COc1ccc(-c2cc3nccn3c(Nc3ncccc3C(N)=O)n2)cc1OC | 3.65 | > 100 | > 100000 | > 100 | 3.18 | > 100 | > 65700 | > 100 µM | > 31.8 µM | > 100 µM | 742 | > 100 µM | 2340 | > 100 µM | 1210 | > 100 µM | 1.05 | > 100 µM | > 100 µM | > 100 µM |
| CCOC(=O)c1cn2ncnc(Oc3ccc(NC(=O)NCCN(CC)CC)c(Cl)c3)c2c1C | 2.28 | 6.58 | 2380 | 6.24 | 12 | 29.5 | 1890 | 3.75 µM | 3.88 µM | 21.7 µM | 1950 | 3.72 µM | 2100 | 4.6 µM | 2010 | 3.78 µM | 3.34 | 13.3 µM | 17.9 µM | > 100 µM |
| COc1ccc(CC(C#N)c2cc(OC)c(OC)c(OC)c2)cc1 (stereo not given) |  | > 71.4 |  | 6.32 |  | > 100 |  | > 100 µM |  | > 100 µM |  | > 100 µM |  | > 100 µM |  | 0.133 µM |  | > 79.9 µM |  | 14.3 µM |
| COc1cccc2cc(N(C)c3nc(C)nc4ccsc34)ccc12 | < 0.01 | 13.9 | < 10 | 15.1 |  | 18.9 | < 10 | 12.6 µM | < 0.01 µM | 22.4 µM | < 10 | 12.5 µM | < 10 | 16.6 µM | < 10 |  | < 0.01 | 15 µM | < 0.015 µM | 19.8 µM |
| CCCCCCCCCCC(CN(CC)CC)C(O)c1ccccc1 (stereo not given) | 1.94 | 3.87 | 1860 | 3.56 |  |  | 1740 | 3.4 µM | 1.75 µM | 4.07 µM | 1780 | 3.46 µM | 1800 | 3.43 µM | 1810 | 3.7 µM | 2.11 | 5.69 µM | 2.03 µM | 4.66 µM |
| O=C(Nn1c2c(sc1=NC1CC1)C(=O)c1ccccc1C2=O)c1cc2ccc1CCc1ccc(cc1)CC2 | 2.54 | 11 | 2410 | 11.1 | 4.28 | 17.2 | 1330 | 2.83 µM | 2.09 µM | 6.03 µM | 1620 | 3.52 µM | 1920 | 4.32 µM | 3360 | 12.7 µM | 1.34 | 2.61 µM | 1.81 µM | 5.83 µM |
| O=C(O)CCc1nc(-c2ccccc2)c(-c2ccccc2)o1 |  |  |  | > 100 |  | > 100 |  | > 100 µM |  | > 100 µM |  | > 100 µM |  | > 100 µM |  | > 100 µM |  | > 100 µM |  | > 100 µM |
| c1ccc([P+](CCC[P+](c2ccccc2)(c2ccccc2)c2ccccc2)(c2ccccc2)c2ccccc2)cc1 | 7.71 | > 100 |  | > 100 | 18 | > 100 | 27600 | > 100 µM | 11.8 µM | 85.4 µM |  | > 100 µM | 15000 | > 100 µM | 2890 | 96.6 µM and 10.5 µM | 19.6 | > 100 µM | 32.7 µM | 93.8 µM and > 100 µM |
| Cc1[nH]ccc2cc3nc4ccccc4c3cc12 | 2.97 | 14.2 | 2820 | 12.4 | 2.79 | 12.8 | 2470 | 11.1 µM | 3.26 µM | 18 µM | 3520 | 12.3 µM | 1070 | 6.9 µM | 2350 | 7.15 µM | 2.55 | 12.5 µM | 2.94 µM | 12.6 µM |
| Oc1oc(-c2ccccc2)nc1/C=C1/C=NN=N1 |  | > 100 |  | > 100 |  | > 100 |  | > 100 µM |  | > 100 µM |  | > 100 µM |  | > 100 µM |  | > 100 µM |  | > 100 µM |  | > 100 µM |
| CCN1CCN(c2cc(C)nc(NCc3cc(Nc4ccnc5cc(Cl)ccc45)ccc3F)n2)CC1 | 4.09 | 40 | 3280 | 12.6 | 3.59 | 24.1 | 1720 | 3.4 µM | 5.34 µM | 50.6 µM |  |  | 2320 | 15.1 µM | 897 | 2.81 µM | 4.48 | 27 µM | 15.4 µM | 48.9 µM |
| O=C1C(Nc2cccc(O)c2)=C(Sc2ccc(Cl)cc2)C(=O)N1Cc1ccccc1 | 8.73 | 44.6 | 10300 | 29.4 | 15.8 | 35.7 | 6940 | 38.5 µM | 13.3 µM | 58.1 µM | 10400 | 27.2 µM |  |  | 28200 | > 100 µM | 15.8 | 55.1 µM | 32.6 µM | > 100 µM |
| CCN1CCN(c2nc(C)cc(N(CCCNc3ccnc4cc(Cl)ccc34)Cc3ccco3)n2)CC1 | 4.31 | 20.6 | 2410 | 6.26 | 3.22 | 14.1 | 1890 | 3.63 µM | 2.87 µM | 9.97 µM | 1970 | 3.97 µM | 3120 | 13 µM | 1850 | 3.98 µM | 5.55 | 19.5 µM | 15.3 µM | 29.2 µM |
| Cc1sc2c(c1C)C(c1ccc(Cl)cc1)=N[C@@H](CC(=O)Nc1ccc(O)cc1)c1nnc(C)n1-2 | 11.8 | 50.8 | 3780 | 21.7 | 0.18 | 17.2 | 276 | 20.2 µM | 0.169 µM | 27.2 µM | 162 | 18.1 µM | 10600 | 32 µM | 146 | 14.3 µM | 9.41 | 30.7 µM | 4.48 µM | 26 µM |
| CC(C)c1ccc(O)c(O)c(=O)c1 (tested in a mixture with another compound) |  | > 61.5 |  | 4.98 |  | > 100 |  | 15.5 µM |  | 69.7 µM |  | 12.1 µM |  | > 100 µM |  | 17.1 µM |  | > 100 µM |  | > 23.4 µM |
| O=C1C(Cl)=C(Nc2ccc3c(c2NC2=C(Cl)C(=O)c4ccccc4C2=O)C(=O)c2ccccc2C3=O)C(=O)c2ccccc21 | 2.91 | 12.9 | 2580 | 9.38 | 2.25 | 5.68 | 1020 | 2.29 µM | 2.1 µM | 6.88 µM | 1300 | 2.9 µM | 2930 | 10.6 µM | 1690 | 3.72 µM | 1.73 | 4.46 µM | 2.7 µM | 8.9 µM |
| Cc1cc(Cl)ccc1Nc1nc(C(F)(F)F)ccc1C(=O)N/N=C/c1ccc(N(C)C)cc1 | 1.37 | > 100 | 1420 | > 100 | 2.38 | > 100 | 1200 | 8.75 µM | 2.7 µM | > 100 µM | 2290 | > 100 µM | 2040 | > 100 µM | 2590 | > 100 µM | 3.99 | > 100 µM | 2.29 µM | > 100 µM |
| O=C1c2c(O)cccc2C(C(=O)CCCC(=O)C2c3cccc(O)c3C(=O)c3c(O)cccc32)c2cccc(O)c21 |  | 3.39 |  | 1.88 |  | 2.09 |  | 2.48 µM |  | 0.202 µM |  | 2.04 µM |  | 14.3 µM |  | 1.32 µM |  | 12.2 µM |  | 1.47 µM |
| C#CCOc1cccc(Nc2ncnc3c2ncn3C2CCN(C(=O)CCl)C2)c1 (stereo not given) | 17.7 | 38.2 | 18100 | 35.1 | 33.3 | > 100 | 16900 | 48.5 µM | 24.7 µM | 91.5 µM | 18100 | 35.4 µM | 18400 | 39.1 µM |  |  | 15.4 | 35.5 µM | 29.5 µM | > 100 µM |
| CCCCCC/C=C\CCCCCCCCCc1c(O)c(OC)cc(O)c1CN(C)C |  |  |  | 13.4 |  | 28.9 |  | 27.8 µM |  | 10.9 µM |  | 23.3 µM |  | > 100 µM |  | 4.43 µM |  | 20.7 µM |  | 36.7 µM |
| CN(C)CCN1C(=O)c2cccc3c(-c4ccc5ncn(C6CCCCC6)c5c4)ccc(c23)C1=O | 2.73 | 12.8 | 2000 | 11.5 | 1.69 | 6.75 | 1700 | 3.61 µM | 3.51 µM | 20.8 µM |  |  | 1060 | 11 µM | 1210 | 4.14 µM | 1.03 | 12.1 µM | 2.32 µM | 7.78 µM |
| OCCCCC#Cc1ccccc1C#Cc1cccs1 | 15.8 | 32 | 13900 | 27 | 13 | 26.5 |  |  | 14.9 µM | 39.1 µM | 12900 | 25.9 µM | 15900 | 30.6 µM | 16400 | 31.5 µM | 16.3 | 31.7 µM | 18.9 µM | 43.6 µM |
| CO[C@@]12[C@H](COC(N)=O)C3=C(C(=O)C(C)=C(N)C3=O)N1C[C@@H]1N[C@@H]12 |  |  |  |  | 0.643 |  | 1090 | 4.08 µM and 12.2 µM and 2.06 µM | 4.21 µM and 5.26 µM | 15.3 µM and 14 µM and 52.1 µM | 952 | 2.64 µM and 7.74 µM and 2.19 µM | 665 | 13 µM and 9.44 µM and 24.2 µM | 1700 | 5.21 µM and 8.43 µM and 7.05 µM | 0.995 | 9.59 µM and 25 µM and 30.8 µM | 1.35 µM and 1.45 µM | 3.95 µM and 7.99 µM and 8.8 µM |
| O=C(Nc1ccc([N+](=O)[O-])cc1)c1cc2ccccc2cc1O | 0.515 | 15.2 | 360 | 13.1 | 0.939 | 8.69 |  |  | 0.618 µM | > 100 µM | 336 | 1.45 µM | 477 | > 27.5 µM | 2470 | 6.41 µM | 0.348 | 5.92 µM | 0.503 µM | 5.37 µM |
